Assay results taken from PMC7026418, “The kinase polypharmacology landscape of clinical PARP inhibitors” (Scientific Reports, 2020).
Like-named read-outs stand apart in the source and are kept apart here. Each block holds one molecule with its values, some of them ahead of it.

Key:
Assay in all cases: biochemical
Set-up in all cases: DiscoveRx KINOMEscan active site-directed competition binding; percent of control kinase bound to immobilised ligand
WEE1 = WEE1 (Homo sapiens, UniProt P30291)
DYRK1A = DYRK1A (Homo sapiens, UniProt Q13627)
HIPK2 = HIPK2 (Homo sapiens, UniProt Q9H2X6)
BUB1 = BUB1 (Homo sapiens, UniProt O43683)
BUB1, sequence (O43683 whole entry): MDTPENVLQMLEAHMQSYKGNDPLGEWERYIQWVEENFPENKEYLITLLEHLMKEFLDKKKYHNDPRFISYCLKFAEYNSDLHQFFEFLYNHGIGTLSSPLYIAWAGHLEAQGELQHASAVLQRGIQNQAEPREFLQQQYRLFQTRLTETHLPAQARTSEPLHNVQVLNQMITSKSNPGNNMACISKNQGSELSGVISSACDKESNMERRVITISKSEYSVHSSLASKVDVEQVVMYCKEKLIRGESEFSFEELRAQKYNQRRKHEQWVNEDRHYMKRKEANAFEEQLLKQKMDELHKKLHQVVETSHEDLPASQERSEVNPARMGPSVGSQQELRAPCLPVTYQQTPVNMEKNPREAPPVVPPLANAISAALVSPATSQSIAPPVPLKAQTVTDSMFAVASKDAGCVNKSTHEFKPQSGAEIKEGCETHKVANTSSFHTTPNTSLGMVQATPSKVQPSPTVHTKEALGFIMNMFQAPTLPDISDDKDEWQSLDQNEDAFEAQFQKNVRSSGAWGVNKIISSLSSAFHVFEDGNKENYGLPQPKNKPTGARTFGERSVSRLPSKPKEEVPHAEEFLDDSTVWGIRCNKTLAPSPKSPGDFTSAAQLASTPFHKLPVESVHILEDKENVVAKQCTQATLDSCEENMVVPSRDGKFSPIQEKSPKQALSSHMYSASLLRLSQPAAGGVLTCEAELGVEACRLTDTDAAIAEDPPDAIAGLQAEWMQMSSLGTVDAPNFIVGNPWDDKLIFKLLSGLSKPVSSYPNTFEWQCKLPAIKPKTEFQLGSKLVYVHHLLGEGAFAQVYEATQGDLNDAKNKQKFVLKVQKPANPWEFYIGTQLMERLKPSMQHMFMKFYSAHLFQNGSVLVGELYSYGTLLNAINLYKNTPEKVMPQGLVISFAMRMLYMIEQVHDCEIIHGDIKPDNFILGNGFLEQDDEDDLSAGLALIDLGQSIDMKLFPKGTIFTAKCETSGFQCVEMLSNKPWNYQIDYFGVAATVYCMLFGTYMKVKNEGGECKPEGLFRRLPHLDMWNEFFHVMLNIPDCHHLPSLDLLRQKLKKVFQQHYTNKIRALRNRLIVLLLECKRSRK

SRPK2 = SRPK2 (Homo sapiens, UniProt P78362)
PIK3CA(Q546K) = PIK3CA(Q546K) (Homo sapiens, UniProt P42336, Q546K)
PIK3CA(Q546K), sequence (P42336 whole entry Q546K): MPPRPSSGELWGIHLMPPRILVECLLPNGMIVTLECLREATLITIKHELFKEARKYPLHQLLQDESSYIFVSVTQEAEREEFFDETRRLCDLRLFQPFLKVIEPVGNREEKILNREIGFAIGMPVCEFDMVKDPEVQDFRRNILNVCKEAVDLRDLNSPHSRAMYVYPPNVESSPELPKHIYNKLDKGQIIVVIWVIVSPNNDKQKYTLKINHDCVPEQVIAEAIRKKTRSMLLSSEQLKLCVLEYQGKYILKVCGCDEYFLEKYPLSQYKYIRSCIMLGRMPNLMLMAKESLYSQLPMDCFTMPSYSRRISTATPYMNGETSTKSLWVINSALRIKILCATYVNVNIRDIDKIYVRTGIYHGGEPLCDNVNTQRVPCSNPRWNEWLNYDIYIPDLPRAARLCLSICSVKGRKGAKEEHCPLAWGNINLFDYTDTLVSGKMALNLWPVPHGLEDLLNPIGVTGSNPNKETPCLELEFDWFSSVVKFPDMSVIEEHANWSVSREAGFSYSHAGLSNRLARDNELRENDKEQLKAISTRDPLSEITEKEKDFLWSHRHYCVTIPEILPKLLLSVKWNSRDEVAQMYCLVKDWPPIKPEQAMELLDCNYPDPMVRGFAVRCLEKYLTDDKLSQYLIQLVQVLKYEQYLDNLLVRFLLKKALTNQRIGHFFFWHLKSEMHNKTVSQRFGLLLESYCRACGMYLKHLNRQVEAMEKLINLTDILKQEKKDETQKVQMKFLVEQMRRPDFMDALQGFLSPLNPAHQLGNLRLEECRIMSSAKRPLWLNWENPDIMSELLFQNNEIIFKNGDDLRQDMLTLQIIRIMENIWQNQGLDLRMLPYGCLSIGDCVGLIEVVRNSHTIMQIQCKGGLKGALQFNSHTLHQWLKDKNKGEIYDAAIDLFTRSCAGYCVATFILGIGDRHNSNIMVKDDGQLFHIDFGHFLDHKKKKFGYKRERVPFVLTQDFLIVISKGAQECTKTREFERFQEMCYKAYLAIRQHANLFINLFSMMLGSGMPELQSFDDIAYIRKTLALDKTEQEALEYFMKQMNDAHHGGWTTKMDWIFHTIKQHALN

MRCKA = target: T1, MRCKA (Homo sapiens, UniProt Q5VT25)
T1 construct: gene CDC42BPA

MAK = target: T2, MAK (Homo sapiens, UniProt P20794)
T2 sequence (P20794 1-623): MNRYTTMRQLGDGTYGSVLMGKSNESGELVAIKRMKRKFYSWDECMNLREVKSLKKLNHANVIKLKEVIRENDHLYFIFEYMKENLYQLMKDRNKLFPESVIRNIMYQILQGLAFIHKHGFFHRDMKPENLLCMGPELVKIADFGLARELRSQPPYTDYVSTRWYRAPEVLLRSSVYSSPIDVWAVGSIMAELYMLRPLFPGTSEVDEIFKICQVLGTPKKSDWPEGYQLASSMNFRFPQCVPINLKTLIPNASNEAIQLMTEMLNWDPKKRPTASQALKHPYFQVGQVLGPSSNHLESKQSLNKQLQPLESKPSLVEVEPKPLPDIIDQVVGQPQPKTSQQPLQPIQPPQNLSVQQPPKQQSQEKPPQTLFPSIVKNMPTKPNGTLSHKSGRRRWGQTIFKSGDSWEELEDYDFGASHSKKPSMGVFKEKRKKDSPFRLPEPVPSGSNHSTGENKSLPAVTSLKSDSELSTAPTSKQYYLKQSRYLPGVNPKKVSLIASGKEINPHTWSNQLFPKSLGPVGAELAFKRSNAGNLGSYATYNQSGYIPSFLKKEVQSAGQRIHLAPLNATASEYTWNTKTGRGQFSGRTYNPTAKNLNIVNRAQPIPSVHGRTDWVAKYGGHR

NEK7 = NEK7 (Homo sapiens, UniProt Q8TDX7)
NEK7, sequence (Q8TDX7 whole entry): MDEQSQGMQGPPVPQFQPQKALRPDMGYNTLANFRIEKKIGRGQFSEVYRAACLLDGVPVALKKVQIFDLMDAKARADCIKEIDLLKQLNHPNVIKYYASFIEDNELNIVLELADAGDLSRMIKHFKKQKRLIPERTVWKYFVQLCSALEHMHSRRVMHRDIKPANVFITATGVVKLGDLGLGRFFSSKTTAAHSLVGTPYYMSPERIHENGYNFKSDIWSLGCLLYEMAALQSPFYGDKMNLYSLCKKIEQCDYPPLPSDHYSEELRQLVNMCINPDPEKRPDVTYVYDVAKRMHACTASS

TIE1 = TIE1 (Homo sapiens, UniProt P35590)
TIE1, sequence (P35590 whole entry): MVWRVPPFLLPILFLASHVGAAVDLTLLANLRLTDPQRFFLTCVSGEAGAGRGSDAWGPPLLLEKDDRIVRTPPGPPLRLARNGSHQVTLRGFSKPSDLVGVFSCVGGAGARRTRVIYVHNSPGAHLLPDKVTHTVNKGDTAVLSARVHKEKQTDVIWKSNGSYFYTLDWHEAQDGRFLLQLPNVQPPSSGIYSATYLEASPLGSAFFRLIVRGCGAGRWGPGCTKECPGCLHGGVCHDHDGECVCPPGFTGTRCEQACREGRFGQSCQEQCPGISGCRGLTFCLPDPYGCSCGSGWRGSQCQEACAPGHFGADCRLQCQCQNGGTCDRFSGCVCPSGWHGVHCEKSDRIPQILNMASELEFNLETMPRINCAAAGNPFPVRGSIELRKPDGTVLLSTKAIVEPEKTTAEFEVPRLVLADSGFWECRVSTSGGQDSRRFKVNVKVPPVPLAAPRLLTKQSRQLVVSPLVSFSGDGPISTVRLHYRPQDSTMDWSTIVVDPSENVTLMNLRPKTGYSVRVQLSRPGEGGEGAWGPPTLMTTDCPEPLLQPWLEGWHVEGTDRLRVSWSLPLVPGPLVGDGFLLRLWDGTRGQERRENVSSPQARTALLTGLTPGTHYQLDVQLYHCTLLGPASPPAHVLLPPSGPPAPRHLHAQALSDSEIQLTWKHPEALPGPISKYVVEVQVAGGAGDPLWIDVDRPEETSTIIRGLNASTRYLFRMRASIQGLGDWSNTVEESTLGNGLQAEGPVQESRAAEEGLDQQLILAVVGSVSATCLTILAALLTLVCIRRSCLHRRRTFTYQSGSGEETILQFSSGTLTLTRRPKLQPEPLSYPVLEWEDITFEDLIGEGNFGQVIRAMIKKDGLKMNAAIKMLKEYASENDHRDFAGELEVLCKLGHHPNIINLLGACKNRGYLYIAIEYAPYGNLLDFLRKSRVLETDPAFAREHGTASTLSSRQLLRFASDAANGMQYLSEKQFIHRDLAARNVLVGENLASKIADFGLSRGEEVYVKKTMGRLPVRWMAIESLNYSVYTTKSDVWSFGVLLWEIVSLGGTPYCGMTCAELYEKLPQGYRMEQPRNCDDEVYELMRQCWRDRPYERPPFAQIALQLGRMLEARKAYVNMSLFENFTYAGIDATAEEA

MARK2 = MARK2 (Homo sapiens, UniProt Q7KZI7)
MARK2, sequence (Q7KZI7 whole entry): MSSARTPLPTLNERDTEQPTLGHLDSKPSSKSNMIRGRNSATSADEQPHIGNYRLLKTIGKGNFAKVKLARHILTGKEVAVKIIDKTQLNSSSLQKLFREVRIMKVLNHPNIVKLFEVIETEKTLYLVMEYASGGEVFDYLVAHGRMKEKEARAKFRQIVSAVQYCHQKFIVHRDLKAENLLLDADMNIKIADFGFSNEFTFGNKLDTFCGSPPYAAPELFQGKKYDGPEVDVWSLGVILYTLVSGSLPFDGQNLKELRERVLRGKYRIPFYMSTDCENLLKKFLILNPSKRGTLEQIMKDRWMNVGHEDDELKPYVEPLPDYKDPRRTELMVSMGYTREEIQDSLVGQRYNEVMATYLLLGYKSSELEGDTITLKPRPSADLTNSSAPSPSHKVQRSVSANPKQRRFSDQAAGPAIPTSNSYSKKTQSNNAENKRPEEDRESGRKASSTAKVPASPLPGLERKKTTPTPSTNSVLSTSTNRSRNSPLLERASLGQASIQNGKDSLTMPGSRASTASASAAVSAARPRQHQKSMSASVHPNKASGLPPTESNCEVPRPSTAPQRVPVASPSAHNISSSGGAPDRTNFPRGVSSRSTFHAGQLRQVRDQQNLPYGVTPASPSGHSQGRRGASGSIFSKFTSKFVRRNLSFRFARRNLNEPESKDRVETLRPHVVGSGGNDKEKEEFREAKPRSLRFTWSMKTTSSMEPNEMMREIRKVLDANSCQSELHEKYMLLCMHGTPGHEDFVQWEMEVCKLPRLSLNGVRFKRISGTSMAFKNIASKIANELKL

SRPK1 = SRPK1 (Homo sapiens, UniProt Q96SB4)
PIK3CD = target: T3, PIK3CD (Homo sapiens, UniProt O00329)
T3 sequence (O00329 1-1044): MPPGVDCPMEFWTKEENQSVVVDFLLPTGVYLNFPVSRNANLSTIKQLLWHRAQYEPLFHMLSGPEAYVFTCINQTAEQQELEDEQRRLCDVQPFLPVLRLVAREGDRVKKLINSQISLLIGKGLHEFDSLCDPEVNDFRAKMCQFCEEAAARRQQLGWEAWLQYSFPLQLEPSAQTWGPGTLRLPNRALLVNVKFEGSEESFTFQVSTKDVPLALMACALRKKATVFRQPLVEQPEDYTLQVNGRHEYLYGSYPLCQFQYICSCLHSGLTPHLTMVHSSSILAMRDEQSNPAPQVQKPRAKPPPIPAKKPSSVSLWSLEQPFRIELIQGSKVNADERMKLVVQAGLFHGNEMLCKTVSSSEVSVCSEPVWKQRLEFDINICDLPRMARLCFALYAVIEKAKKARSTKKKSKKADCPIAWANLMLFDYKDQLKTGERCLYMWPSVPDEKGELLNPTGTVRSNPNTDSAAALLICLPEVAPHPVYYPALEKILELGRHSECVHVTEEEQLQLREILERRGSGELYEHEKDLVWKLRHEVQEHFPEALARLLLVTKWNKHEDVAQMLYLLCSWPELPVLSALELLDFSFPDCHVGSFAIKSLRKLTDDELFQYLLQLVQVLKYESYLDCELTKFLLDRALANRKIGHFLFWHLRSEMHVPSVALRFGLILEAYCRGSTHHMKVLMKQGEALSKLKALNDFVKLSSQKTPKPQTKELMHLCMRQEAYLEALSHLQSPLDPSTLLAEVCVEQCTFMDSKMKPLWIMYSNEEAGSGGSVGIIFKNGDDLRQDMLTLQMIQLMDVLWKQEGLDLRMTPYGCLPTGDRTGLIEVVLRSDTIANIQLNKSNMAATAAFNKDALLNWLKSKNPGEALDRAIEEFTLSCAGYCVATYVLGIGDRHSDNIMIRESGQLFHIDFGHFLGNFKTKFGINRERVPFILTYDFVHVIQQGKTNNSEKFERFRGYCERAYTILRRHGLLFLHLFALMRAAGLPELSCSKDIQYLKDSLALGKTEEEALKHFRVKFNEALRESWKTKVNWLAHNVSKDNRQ

[1] = read-out: Niraparib (MK-4827) / %Ctrl @ 10000nM
[2] = read-out: Rucaparib / %Ctrl @ 10000nM, binding competition, % of control
[3] = read-out: Olaparib / %Ctrl @ 10000nM
[4] = read-out: Talazoparib (BMN 673) / %Ctrl @ 10000nM

WEE1, sequence (P30291 whole entry): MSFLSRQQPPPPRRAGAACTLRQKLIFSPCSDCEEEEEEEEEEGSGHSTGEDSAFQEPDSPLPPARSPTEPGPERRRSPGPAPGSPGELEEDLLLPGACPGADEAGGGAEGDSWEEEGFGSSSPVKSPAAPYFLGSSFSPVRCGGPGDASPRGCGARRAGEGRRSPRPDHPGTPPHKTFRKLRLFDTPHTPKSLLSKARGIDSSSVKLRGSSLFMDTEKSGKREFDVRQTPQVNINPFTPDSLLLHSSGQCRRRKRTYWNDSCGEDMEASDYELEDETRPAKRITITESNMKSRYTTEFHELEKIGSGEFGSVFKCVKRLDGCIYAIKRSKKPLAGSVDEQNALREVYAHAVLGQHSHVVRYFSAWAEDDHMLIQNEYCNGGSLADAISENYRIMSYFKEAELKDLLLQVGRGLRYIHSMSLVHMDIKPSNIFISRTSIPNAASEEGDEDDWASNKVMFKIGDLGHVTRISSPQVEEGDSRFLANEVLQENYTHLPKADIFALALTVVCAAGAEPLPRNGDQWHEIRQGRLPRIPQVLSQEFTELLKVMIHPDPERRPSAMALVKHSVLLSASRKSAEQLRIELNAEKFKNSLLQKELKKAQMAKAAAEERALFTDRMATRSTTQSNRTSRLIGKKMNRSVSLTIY

SMILES: NC(=O)c1cccc2cn(-c3ccc([C@@H]4CCCNC4)cc3)nc12 [Niraparib]
percent of control binding at 10 µM (WEE1; [1]): 100% | percent of control binding at 10 µM (DYRK1A; [1]): 0.2% | percent of control binding at 10 µM (HIPK2; [1]): 1.1% | percent of control binding at 10 µM (BUB1; [1]): 97% | percent of control binding at 10 µM (SRPK2; [1]): 100% | percent of control binding at 10 µM (PIK3CA(Q546K); [1]): 100% | percent of control binding at 10 µM (MRCKA; [1]): 100% | percent of control binding at 10 µM (MAK; [1]): 56% | percent of control binding at 10 µM (NEK7; [1]): 88% | percent of control binding at 10 µM (TIE1; [1]): 87% | percent of control binding at 10 µM (MARK2; [1]): 75% | percent of control binding at 10 µM (SRPK1; [1]): 77% | percent of control binding at 10 µM (PIK3CD; [1]): 73%

percent of control binding at 10 µM (WEE1; [2]): 92% | percent of control binding at 10 µM (DYRK1A; [2]): 0.4% | percent of control binding at 10 µM (HIPK2; [2]): 5.1% | percent of control binding at 10 µM (BUB1; [2]): 48% | percent of control binding at 10 µM (SRPK2; [2]): 68% | percent of control binding at 10 µM (PIK3CA(Q546K); [2]): 93% | percent of control binding at 10 µM (MRCKA; [2]): 97% | percent of control binding at 10 µM (MAK; [2]): 81% | percent of control binding at 10 µM (NEK7; [2]): 100% | percent of control binding at 10 µM (TIE1; [2]): 92% | percent of control binding at 10 µM (MARK2; [2]): 92% | percent of control binding at 10 µM (SRPK1; [2]): 97% | percent of control binding at 10 µM (PIK3CD; [2]): 64%
SMILES: CNCc1ccc(-c2[nH]c3cc(F)cc4c3c2CCNC4=O)cc1 [Rucaparib]

percent of control binding at 10 µM (WEE1; [3]): 100% | percent of control binding at 10 µM (DYRK1A; [3]): 95% | percent of control binding at 10 µM (HIPK2; [3]): 95% | percent of control binding at 10 µM (BUB1; [3]): 83% | percent of control binding at 10 µM (SRPK2; [3]): 86% | percent of control binding at 10 µM (PIK3CA(Q546K); [3]): 90% | percent of control binding at 10 µM (MRCKA; [3]): 98% | percent of control binding at 10 µM (MAK; [3]): 77% | percent of control binding at 10 µM (NEK7; [3]): 98% | percent of control binding at 10 µM (TIE1; [3]): 96% | percent of control binding at 10 µM (MARK2; [3]): 100% | percent of control binding at 10 µM (SRPK1; [3]): 98% | percent of control binding at 10 µM (PIK3CD; [3]): 75%
SMILES: O=C(c1cc(Cc2n[nH]c(=O)c3ccccc23)ccc1F)N1CCN(C(=O)C2CC2)CC1 [Olaparib]

percent of control binding at 10 µM (WEE1; [4]): 100% | percent of control binding at 10 µM (DYRK1A; [4]): 94% | percent of control binding at 10 µM (HIPK2; [4]): 99% | percent of control binding at 10 µM (BUB1; [4]): 100% | percent of control binding at 10 µM (SRPK2; [4]): 100% | percent of control binding at 10 µM (PIK3CA(Q546K); [4]): 100% | percent of control binding at 10 µM (MRCKA; [4]): 100% | percent of control binding at 10 µM (MAK; [4]): 93% | percent of control binding at 10 µM (NEK7; [4]): 80% | percent of control binding at 10 µM (TIE1; [4]): 100% | percent of control binding at 10 µM (MARK2; [4]): 100% | percent of control binding at 10 µM (SRPK1; [4]): 100% | percent of control binding at 10 µM (PIK3CD; [4]): 82%
SMILES: Cn1ncnc1[C@H]1c2n[nH]c(=O)c3cc(F)cc(c23)N[C@@H]1c1ccc(F)cc1 [Talazoparib]
